# Patent US6472145B2, “Method and composition for modulating amyloidosis” (priority 1998, dated 2002)
# Read-outs that look alike come from different tables or passages of the source.
# Key:
# K695 cells [1] = assay: Lysosomal function: Lysosensor Yellow/Blue DND-160 uptake; assay type: cell-based, Human; conditions: FCCP 5 μM and 500 nM, baf A1 1 μM, NH4Cl 20 mM, 4 hrs
# Procedure: (§1) Endosomal function was assessed by the fluorometric quantitation of the receptor-mediated uptake of both Texas Red and fluoroscein labelled transferrin (Molecular Probes, Eugene, Oreg.)(33-35). K695 cells were maintained as exposed to various treatments as mentioned with the exception that cells were plated at a density 200,000 cells/well in 24-well plates (Corning™). Twenty-four hours after plating, cells were exposed to various treatments in DMEM supplemented with sodium pyruvate (1 mM) and 10% fetal bovine serum. At the same time as drug exposures, both transferrin-Texas Red (Tf-Tx) and transferrin-fluoroscein (Tf-F) (10 μl/ml media of 5 mg/ml stocks in PBS) were added to each well and incubated for 4 hours at 37° C. Each well was then gently washed three times with warm media and uptake of fluorescent probes quantitated at 37° C. using a Cytofluor™ 2350 fluorometric plate reader (Millipore, Mississauga, ON). Quantitation of the non-pH-dependent Tf-Tx fluorescence and the pH-dependent Tf-F fluorescence was determined using excitation filters of 590 nm (bandwidth=20 nm); 485 nm (bandwidth=20 nm) and emission filters of 645 nm (bandwidth=40 nm); 530 nm (bandwidth=25 nm), respectively. Similarly, Lysosomal function was assayed by the uptake of the fluorescent probe, Lysosensor™ Yellow/Blue DND-160 (Molecular Probes, Eugene, Oreg.)(36). Assay of Lysosensor™ uptake was performed in an identical manner to that of the fluorescent labelled transferrin conjugates with the exception that the addition of 10 μl/ml media of Lysosensor™ was taken from a 1 mM stock solution in DMSO. Quantitation of the non-pH-dependent blue fluorescence and the pH-dependent yellow fluorescence was determined using an excitation filter of 360 nm (bandwidth=40 nm) and emission filters of 460 mn (bandwidth=40 nm) and 530 nm (bandwidth =25 nm), respectively. For all three probes examined, relative fluorescence was obtained from subtraction from sister wells which had not been exposed to fluorophores. […]
# K695sw cells [2] = conditions: 5 μM, 500 nM or 50 nM, 24 hours
# Procedure: Cell viability was quantified based on the exclusion of the membrane impermeant probe, YO-PRO (Molecular Probes, Eugene, Oreg.). K695sw cells were maintained and exposed to vehicle or various concentrations of FCCP as described above with the exception that cells were plated at a density of 20,000 cells/well in 96-well plates (Falcon®). Twenty-four hours after plating, cells were exposed to various treatments in DMEM supplemented with sodium pyruvate (1 mM) and 10% fetal bovine serum. At the same time as drug exposures, YO-PRO (4 μM) was added to each well and its uptake quantified every 30 minutes for 1 day at 37° C. using a Cytofluor™ 2350 fluorometric plate reader (Millipore, Mississauga, ON). As a positive control, all wells were exposed to 0.1% Triton X-100 at the end of the experiment.
# [3] = test system: mitochondrial membrane potential; conditions: 1 μM FCCP; cited from earlier work
# [4] = test system: wild-type APP695 (K695 cells); conditions: 4 hours
# Procedure: (§2) Human embryonic kidney (HEK) 293 cells stably transfected with either wild-type APP695 (K695 cells) or APP carrying the AD-linked double “Swedish” mutation (K695sw cells)(30) were cultured in DMEM supplemented with sodium pyruvate (1 mM) and 10% fetal calf serum as previously described (31). Cells were plated at 1,000,000 cells per well in 35 mm^2 culture dishes (Corning™) 24 hours prior to drug exposure. Preceding the addition of drugs, cultures are washed once with warm PBS (37° C.) and then exposed to various treatments in DMEM supplemented with sodium pyruvate (1 mM). Cultures were then exposed to either control media, vehicle (0.05% ethanol), or varying concentrations of FCCP (5 μM, 500 nM, 50 nM). Either 30 minutes or 4 hours after the addition of drugs, the media was removed, the cultures washed once with ice-cold PBS, and then harvested in 100 μl of ice-cold lysis buffer containing 20 mM MOPS (pH 7.2), 5 mM EDTA, 0.01% NP-40, 75 mM β-glycerol phosphate, […], […], 50 mM phosphatase substrate, […], and 1 mg/ml each of leupeptin, aprotinin and pepstatin.
# (§3) To examine extracellular APP fragments, the media was retained and centrifuged at 4° C. for 10 min at 16,000 X g to remove cellular debris. Extracellular protein was then precipitated by 10% trichloroacetic acid as previously described (31). Subsequently, secreted APPsα was determined by 10% Tris-Glycine SDS-PAGE Western Blot analysis using the monoclonal antibody WO-2, generated against the first 16 amino acids of the N-terminal region of Aβ (32). Similarly, extracellular Aβ release was examined by 16% Tris-Tricine SDS-PAGE Western Blot analysis using the WO-2 antibody (32). For examination of intracellular APP fragments, cultures were harvested in ice-cold lysis buffer and then sonicated for 8 seconds on ice. Cellular protein levels were quantified using the BCA protein assay (Pierce, Rockford, Ill.) and 10 μg of cellular protein were then separated by either 10% Tris-Glycine or 16% Tris-Tricine SDS-PAGE. Intracellular C100 and total APP were quantitated, respectively, by 16% Tris-Tricine Western Blot analysis using the WO-2 antibody and 10% Tris-Glycine Western Blot analysis using an anti-APP N-terminal antibody (22C11, Boehringer Mannheim, Laval, QC). A diagram of the catabolic fragments of APP and the epitopes to which each antibody binds is depicted in FIG. 1. […] The wavy line represents the plasma membrane. The enzyme α-secretase (α-left) cleaves APP within the Aβ sequence (represented by the heavy line), resulting in release of the ectodomain fragment known as APPsα. The enzymes β and γ secretase (β, γ, right) sequentially cleave APP on either side of the Aβ sequence. β secretase cleavage results in the release of the ectodomain fragment known as APPsβ and production of the cellular fragment known as C100; following γ-secretase cleavage, extracellular Aβ is released. Probing the cellular fraction with antibody 22C11 identifies total cellular APP. Probing the cellular fraction with WO-2 identifies C100 (distinguished by molecular weight). Probing the extracellular fraction with WO-2 identifies both APPsα and Aβ (distinguished by molecular weight).
# (§4) Cellular (C100 and total APP) and extracellular (APPsα and Aβ ) APP catabolic fragments were separated using SDS PAGE with either 10% Tris-Glycine (for APPsα and total APP) or 16% Tris-Tricine (for C100 and Aβ) gels. Following electrophoretic separation, proteins were transferred to nitrocellulose membranes and probed with either the monoclonal antibody WO-2 to detect C100, APPsα and Aβ, or 22C11 to detect total cellular APP. Immunoreactive bands were visualized using ECL detection (Amersham, Oakville, ON) and analyzed by standard autoradiographic and densitometric techniques as described (31).
# [5] = test system: APP carrying the AD-linked double "Swedish" mutation (K695sw cells); conditions: for Aβ release: FCCP 5 μM, 500 nM, 50 nM
# Procedure: as §2, §3, §4
# K695 cells [6] = assay: Endosomal function: uptake of Tf-Tx and Tf-F labelled transferrin; assay type: cell-based, Human; conditions: 4 hrs; for impairment of endosomal function (decrease in Tf-Tx and Tf-F signals): baf A1 1 μM, NH4Cl 20 mM
# Procedure: as §1
# cellular ATP levels = conditions: 30 μM FCCP for 2 hours; cited from earlier work
# K695sw cells [7] = assay: Quantification of cellular ATP levels (luciferase/luciferin); assay type: cell-based, Human; conditions: various concentrations, 30 minutes or 4 hours
# Procedure: 20 μl aliqouts of ATP standards and samples were then assayed for ATP content using a luciferase/luciferin ATP determination kit (A-6608, Molecular Probes, Eugene, Oreg.). ATP-dependent luminescence was quantified using an Optocomp® II luminometer (MGM Instruments, Hamden, Conn.) and ATP levels were determined by extrapolation from a standard curve. […] As a positive control, the effect of combined treatment with various concentrations of sodium azide and 2-deoxy-D-glucose (NaA/DG) was also examined in these studies.
# APP = conditions: background; NH4Cl at high concentrations; cited from earlier work
# K695sw cells [8] = conditions: previous studies; cited from earlier work
# [9] = test system: cells expressing wild-type APP (K695 cells); conditions: previous studies; cited from earlier work
smiles,measurement,setting,value
"N#CC(C#N)=NNc1ccc(OC(F)(F)F)cc1 [FCCP, carbonyl cyanide p-(trifluoromethoxy)phenylhydrazone]",lysosomal function (Lysosensor fluorescence),K695 cells [1],"reductions in lysosomal function, albeit not as profound"
same,cell death as measured by membrane exclusion (YO-PRO),K695sw cells [2],no increase in cell death
same,mitochondrial membrane potential,[3],sufficient to alter mitochondrial membrane potential
same,APPsα production,[4],marked concentration-dependent decrease in APPsα production
same,Aβ production,[4],clearly inhibited Aβ production in a concentration-dependent manner
same,maturation of APP,[4],unaffected
same,total levels of cellular APP,[4],unaffected
same,production of the ectodomain fragment APPsα (APPsα release),[5]; 30 min and 4 hours,only affected by 4 hour exposure to 5 μM FCCP
same,formation of the C100 fragment (cellular C100),[5]; 4 hours,concentration-dependent decrease in the formation of the C100 fragment
same,maturation of APP via N'/O' linked glycosylation,[5]; 4 hours,neither total cellular levels of APP nor the maturation of APP via N′/O′ linked glycosylation were affected
same,total cellular levels of APP,[5]; 4 hours,neither total cellular levels of APP nor the maturation of APP via N′/O′ linked glycosylation were affected
same,Aβ release,[5]; 30 min,concentration-dependent decrease in Aβ release
same,Aβ release,[5]; 4 hours,decreases in Aβ release were even more pronounced
same,endosomal functioning (Tf-Tx and Tf-F signals),K695 cells [6]; FCCP 5 μM and 500 nM,did not significantly alter endosomal functioning
same,cellular ATP levels,cellular ATP levels,sufficient to modestly decrease cellular ATP levels
same,cellular ATP levels,K695sw cells [7],did not alter cellular ATP levels at any of the concentrations or time points measured
"Cl.N [NH4Cl, ammonium chloride]",lysosomal function (Lysosensor fluorescence),K695 cells [1],profound reductions in lysosomal functioning
same,impairment of endosomal function (decrease in Tf-Tx and Tf-F signals),K695 cells [6],approximately 50%
same,APP proteolytic processing / APP catabolism,APP,decrease APP proteolytic processing
"CO/C1=C\C(C)=C\[C@@H](C)[C@@H](O)[C@@H](C)C/C(C)=C/C=C/[C@H](OC)[C@@H]([C@@H](C)[C@@H](O)[C@H](C)[C@@]2(O)C[C@@H](O)[C@H](C)[C@@H](C(C)C)O2)OC1=O [baf A1, bafilomycin A1]",lysosomal function (Lysosensor fluorescence),K695 cells [1],profound reductions in lysosomal functioning
same,Aβ production,K695sw cells [8],reduced Aβ production
same,impairment of endosomal function (decrease in Tf-Tx and Tf-F signals),K695 cells [6],approximately 50%
same,APP proteolytic processing / APP catabolism,APP,alterations in APP catabolism which are both cell-type and APP mutation specific
same,Aβ production,[9],lack of effect
CC[C@@]1([C@@H]2O[C@@H]([C@H]3O[C@@](O)(CO)[C@H](C)C[C@@H]3C)C[C@@H]2C)CC[C@H]([C@]2(C)CC[C@]3(C[C@H](O)[C@@H](C)[C@@H]([C@@H](C)[C@@H](OC)[C@H](C)C(=O)O)O3)O2)O1 [monensin],APP proteolytic processing / APP catabolism,APP,decrease APP proteolytic processing
